Experiment [1] relates to CPAE (Calf Pulmonary Artery Endothelial) cells. In words: Inhibiting activity on angiogenesis (in vitro), CPAE cells, SRB method. It counts as cell-based. The note with it: Bos taurus, Endothelial cell, 96 h, read-out: IC50, CPAE. On the procedure: (§1) Examination of the Inhibiting Activity on Angiogenesis (In Vitro)
(§2) The compound sample dissolved in DMSO was diluted to ten times by using MEM culture medium (in case of CPAE cells) without adding FBS (Fetal Bovine Serum) and RPMI 1640 culture (in case of EL-4 and P388D1 cells), and 20 of the solution was poured to each well of 96 well plate in triplicate for every concentration gradient. Then, each cell suspension was prepared and poured to examine the inhibiting activity on angiogenesis.
In case of CPAE (Calf Pulmonary Artery Endothelial) cells (used after 2-3 subcultures), a cell suspension having 7×10^3 cells/ml was prepared with MEM (+10% FBS+50 μg/ml ECGS) medium, and after pouring the suspension (180 μl) to each well of 96 well plate, they were cultured in a CO2 incubator (5% CO2, humidified) for 4 days.

Experiment [2] concerns EL-4 (Lymphoma, murine) cells. In words: Inhibiting activity on angiogenesis (in vitro), EL-4 cells, MTT method. It counts as cell-based. The note with it: Mus musculus, EL4, 72 h, read-out: IC50, EL-4. The procedure: as §1, §2
In case of EL-4 (Lymphoma, murine) and P388D1 (leukemia, mouse) cells, a cell suspension having 1×10^4 cells/ml was prepared with RPMI1640 (+10% FBS) culture medium, and after pouring the suspension (180 μl) to each well of 96 well plate, they were cultured in a CO2 incubator (5% CO2, humidified) for 3 days.

The mark [3] stands for this setting: CPAE cells, 4 days culture, SRB method.
Where [4] appears, read: EL-4 cells, 3 days culture, MTT method.

Values after ≈ are worked out from the molar mass of the structure shown. Read-outs that look alike come from different tables or passages of the source.

As to `CC(C)=CC[C@H]1O[C@]1(C)[C@H]1C[C@H](OC(=O)/C=C/C=C/C=C/C=C/C(=O)O)CC[C@]12CO2` [5-Demethoxy fumagillin, 5-demethoxyfumagillin, reference compound], the values for the IC50 in experiment [1] (setting [3]) and in experiment [2] (setting [4]) were 28 ng/mL (≈ 65.3 nM) and 21 ng/mL (≈ 49 nM), respectively.

Turning to `CC(C)=CC[C@H]1O[C@]1(C)[C@H]1CC(=O)CC[C@]1(O)CCl` [Example 4, 3-Chloromethyl-5-demethoxy-3-hydroxy-6-oxo-6-deoxyfumagillol], the concentration for half-maximal inhibition (IC50) is 0.57 ng/mL (≈ 1.99 nM) in experiment [1] (setting [3]) and 0.46 ng/mL (≈ 1.6 nM) in experiment [2] (setting [4]).

On to `CC(C)=CC[C@H]1O[C@]1(C)[C@H]1C[C@H](OC(=O)NC(=O)CCl)CC[C@]12CO2` [Example 5, 5-Demethoxy-6-O-chloroacetylcarbamoylfumagillol], for which the concentration for half-maximal inhibition (IC50) in experiment [1] was 0.28 ng/mL (≈ 0.753 nM); in experiment [2] it was 0.52 ng/mL (≈ 1.4 nM).

Regarding `COc1cc(/C=C/C(=O)O[C@@H]2CC[C@]3(CO3)[C@@H]([C@@]3(C)O[C@@H]3CC=C(C)C)C2)cc(OC)c1OC` [Example 7, 5-Demethoxy-6-O-(3,4,5-trimethoxy)cinnamoyl fumagillol], the IC50 was determined as 0.042 ng/mL (≈ 0.0889 nM) in experiment [1] (setting [3]) and 0.066 ng/mL (≈ 0.14 nM) in experiment [2] (setting [4]).

Turning to `CC(C)=CC[C@H]1O[C@]1(C)[C@H]1C[C@H](OC(=O)/C=C/c2ccc(Cl)cc2)CC[C@]12CO2` [Example 8, 5-Demethoxy-6-O-(4-chlorocinnamoyl)fumagillol], the 50% inhibitory concentration (IC50) in experiment [1] (setting [3]) turned out to be 0.32 ng/mL (≈ 0.767 nM); in experiment [2] (setting [4]) it was 0.26 ng/mL (≈ 0.624 nM).

In the case of `CC(C)=CC[C@H]1O[C@]1(C)[C@H]1C[C@H](OC(=O)NC(=O)CCl)CC[C@]1(O)CCl` [Example 9, 4-O-chloroacetylcarbamoyl-l-chloromethyl-l-cyclohexanol], the IC50 is 0.36 ng/mL (≈ 0.882 nM) in experiment [1] (setting [3]) and 0.43 ng/mL (≈ 1.05 nM) in experiment [2] (setting [4]).

Turning to `COc1ccc(CCC(=O)O[C@@H]2CC[C@]3(CO3)[C@@H]([C@@]3(C)O[C@@H]3CC=C(C)C)C2)cc1` [Example 10, 5-Demethoxy-6-O-[3-(4-methoxyphenyl)propionyl] fumagillol], the IC50 was 0.46 ng/mL (≈ 1.11 nM) in experiment [1] (setting [3]) and 0.82 ng/mL (≈ 1.98 nM) in experiment [2] (setting [4]).

As to `CC(C)=CC[C@H]1O[C@]1(C)[C@H]1C[C@H](OC(=O)OCc2ccccc2)CC[C@]12CO2` [Example 11, O-benzyloxycarbonyl-5-demethoxyfumagillol], the IC50 in experiment [1] was found to be 0.012 ng/mL (≈ 0.031 nM); in experiment [2] (setting [4]) it was 0.041 ng/mL (≈ 0.106 nM).

`CC(C)=CC[C@H]1O[C@]1(C)[C@H]1CC(NC(=O)/C=C/c2ccc(N(C)C)cc2)CC[C@]12CO2` (stereo partly shown) [Example 14, 6-(4-Dimethylaminocinnamoyl)amino-5-demethoxy-6-deoxyfumagillol]: the IC50 in experiment [1] (setting [3]) was determined as 0.19 ng/mL (≈ 0.447 nM); in experiment [2] (setting [4]) it was 0.41 ng/mL (≈ 0.966 nM).

Consider `CC(C)=CC[C@H]1O[C@]1(C)[C@H]1CC(=O)CC[C@]1(O)C[S+](C)C` [Example 20, 2-(1,2-Epoxy-1,5-dimethyl-4-hexenyl)-1-dimethylsulfoniomethyl-4-oxo-1-cyclohexanol iodide], for which the IC50 stood at 0.012 ng/mL in experiment [1] (setting [3]) and 0.032 ng/mL in experiment [2] (setting [4]).

On to `CO[C@@H]1[C@H](OC(=O)/C=C/C=C/C=C/C=C/C(=O)O)CC[C@]2(CO2)[C@H]1[C@@]1(C)O[C@@H]1CC=C(C)C` [Fumagillin, reference compound], for which the half-maximal inhibitory concentration (IC50) in experiment [1] was 3.2 ng/mL (≈ 6.98 nM); in experiment [2], 1.6 ng/mL (≈ 3.49 nM).

The values are drawn from patent publication US6040337A, “5-demethoxyfumagillol derivatives and processes for preparing the same” (priority 1998, dated 2000).
